Experimental data published in patent US8933230B2, “Phosphorus-containing group-substituted quinoline, its preparation process, medical composition containing the compounds and application” (priority 2011, dated 2015).

Legend:
[1] = target: T1, CDK9 (Homo sapiens, UniProt P50750); experiment: KinomeScan kinase panel; type: binding
T1 construct: purchased DiscoveRx Corporation (KinomeScan)
Description: (§1) In this example, the compound prepared in Example 10, N1-[4-[[7-[[1-(diethoxyphosphorylmethyl)-4-piperidinyl]methoxyl]-6-methoxyl-4-quinolyl]oxyl]-3-fluorophenyl]-N1′-(4-fluorophenyl)cyclopropane-1,1-dicarboxamide is tested for the inhibitory effect in the 442-kinase panel of KinomeScan™ (www.kinomescan.com) from DiscoveRx Corporation (4215 Sorrento Valley Blvd, San Diego, Calif. 92121) at 1000 nM of the compound concentration, the results are shown in the following Table 5:
(§2) For the detailed information of the screening technique, see Fabian, M. A. et al, Nat., Biotechnol. 2005, 23, 329 and Karaman, M. W. et al, Nat., Biotechnol. 2008, 26, 127. It can be seen from the following representative results that, the compound according to the present invention has significant inhibitory effect on kinases including c-Met, KDR or VEGFR2, RET, PDGFR-β, c-KIT, Flt3, MEK5, DDR1, LOK, CSF1R, EPHA7, EPHA8, EPHB6, MKNK2, BLK, HIPK4, HCK, Flt4 and the mutants thereof

[2] = target: T2, LATS1 (Homo sapiens, UniProt O95835); experiment: KinomeScan kinase panel; type: binding
T2 construct: purchased DiscoveRx Corporation (KinomeScan)
Description: as §1, §2

[3] = target: T3, EPHB6 (Homo sapiens, UniProt O15197); experiment: KinomeScan kinase panel; type: binding
T3 construct: purchased DiscoveRx Corporation (KinomeScan)
Description: as §1, §2

[4] = target: T4, CDKL2 (Homo sapiens, UniProt Q92772); experiment: KinomeScan kinase panel; type: binding
T4 construct: purchased DiscoveRx Corporation (KinomeScan)
Description: as §1, §2

[5] = target: T5, YANK1 (Homo sapiens, UniProt Q8WU08); experiment: KinomeScan kinase panel; type: binding
T5 construct: purchased DiscoveRx Corporation (KinomeScan service)
Description: as §1, §2

[6] = target: T6, MAP3K3 (Homo sapiens, UniProt Q99759); experiment: KinomeScan kinase panel; type: binding
T6 construct: purchased DiscoveRx Corporation (KinomeScan)
Description: as §1, §2

[7] = target: T7, P38-gamma (Homo sapiens, UniProt P53778); experiment: KinomeScan kinase panel; type: binding
T7 construct: purchased DiscoveRx Corporation (KinomeScan panel)
Description: as §1, §2

[8] = target: T8, PIK3CA(Q546K) (Homo sapiens, UniProt P42336, Q546K); experiment: KinomeScan kinase panel; type: binding
T8 construct: purchased DiscoveRx Corporation (KinomeScan)
Description: as §1, §2

[9] = target: T9, YES (Homo sapiens, UniProt P07947); experiment: KinomeScan kinase panel; type: binding
T9 construct: purchased DiscoveRx Corporation (KinomeScan service)
Description: as §1, §2

[10] = target: T10, VEGFR2 (Homo sapiens, UniProt P35968); experiment: KinomeScan kinase panel; type: binding; set-up: purchased DiscoveRx Corporation (KinomeScan service)
Description: as §1, §2

[11] = target: T11, PFPK5 (P. falciparum) (Plasmodium falciparum, UniProt P61075); experiment: KinomeScan kinase panel; type: binding
T11 construct: purchased DiscoveRx Corporation (KinomeScan)

[12] = target: T12, c-MET (Homo sapiens, UniProt P08581); experiment: c-MET kinase phosphorylation in MKN45 cells (sandwich ELISA); type: cell-based; conditions: without stimulation, mean value of two testing results, read-out: IC50 values in the cell, c-MET
T12 construct: cell line MKN45 having endogenous high expression wild type c-MET; endogenous in cells; host or cells: MKN45
Description: (§3) Inhibitory activity on the kinases in tumor cells: In this example, the compound prepared in Example 10, N1-[4-[[7-[[1-(diethoxyphosphorylmethyl)-4-piperidinyl]methoxyl]-6-methoxyl-4-quinolyl]oxyl]-3-fluorophenyl]-N1′-(4-fluorophenyl)cyclopropane-1,1-dicarboxamide is tested in tumor cells by ProQinase GmbH corporation (Breisacher Str. 117, D-79106 Freiburg, Germany. www.proqinase.com) for the inhibitory activity on the following kinases: c-KIT, c-MET, VEGFR2 and PDGFR-β. The test includes the following steps:
(§4) Firstly, the compound according to present invention is dissolved in dimethyl sulfoxide (DMSO) to prepare a 10 mM stock solution, which is diluted serially according to the concentration range shown in Table 6:
c-MET kinase: in the test experiment of c-MET kinase phosphorylation in the cells, human gastric cancer cell line MKN45 having endogenous high expression wild type c-MET (wild-type c-MET) is used. Such high expression of c-MET causes the tyrosine of c-MET receptor kinases constantly self-phosphorylated without ligands. MKN45 cells are inoculated in DMEM culture solution containing 10% FCS in a multi-well cell culture dish. The compound of the invention is added to the cells after serum overnight starvation, then the cells are cultured in a medium without serum. […]

[13] = target: T13, PDGFR-β (Mus musculus, UniProt P05622); experiment: PDGFR-β kinase phosphorylation in NIH3T3 cells (sandwich ELISA); type: cell-based; conditions: PDGF-BB 100 ng/mL 3 min, mean value of two testing results, read-out: IC50 values in the cell, PDGFR-β
T13 construct: cell line NIH3T3 having endogenous high expression wild type PDGFR-β; endogenous in cells; host or cells: NIH3T3
Description: as §3, §4
PDGFR-β kinase: in the test experiment of PDGFR-beta kinase phosphorylation in the cells, mouse embryo fibroblast cell line NIH3T3 having endogenous high expression wild type PDGFR-β (wild-type PDGFR-β) is used. When these cells are simulated with mouse platelet-derived growth factor BB (PDGF-BB), it causes the tyrosine of PDGFR-beta receptor kinases self-phosphorylated. NIH3T3 cells are inoculated in DMEM culture solution containing 10% FCS in a multi-well cell culture dish. The compound of the invention is added to the cells after serum overnight starvation, then the cells are cultured in a medium without serum. […]

[14] = target: T14, PKNB (M. tuberculosis) (Mycobacterium tuberculosis, UniProt P9WI81); experiment: KinomeScan kinase panel; type: binding
T14 construct: purchased DiscoveRx Corporation (KinomeScan)

[15] = target: T10, VEGFR2; experiment: VEGFR2 kinase phosphorylation in HUE cells (sandwich ELISA); type: cell-based; set-up: cell line HUE having endogenous high expression vascular endothelial growth factor-R2 (VEGFR2); endogenous in cells; host or cells: HUE; conditions: VEGF-A 100 ng/mL 3 min, mean value of two testing results, read-out: IC50 values in the cell, VEGFR2
Description: as §3, §4
VEGFR2 kinase: in the test experiment of VEGFR2 kinase phosphorylation in the cells, a spontaneous immortalized human umbilical vein endothelial cell line HUE having endogenous high expression vascular endothelial growth factor-R2 (VEGFR2) is used. When these cells are simulated with human vascular endothelial growth factor-A (VEGF-A), it causes the tyrosine of VEGFR2 receptor kinases self-phosphorylated. HUE cells are inoculated in endothelial cell growth medium (ECGM) containing 10% FCS in a multi-well cell culture dish. […]

T10 sequence (P35968 20-1356): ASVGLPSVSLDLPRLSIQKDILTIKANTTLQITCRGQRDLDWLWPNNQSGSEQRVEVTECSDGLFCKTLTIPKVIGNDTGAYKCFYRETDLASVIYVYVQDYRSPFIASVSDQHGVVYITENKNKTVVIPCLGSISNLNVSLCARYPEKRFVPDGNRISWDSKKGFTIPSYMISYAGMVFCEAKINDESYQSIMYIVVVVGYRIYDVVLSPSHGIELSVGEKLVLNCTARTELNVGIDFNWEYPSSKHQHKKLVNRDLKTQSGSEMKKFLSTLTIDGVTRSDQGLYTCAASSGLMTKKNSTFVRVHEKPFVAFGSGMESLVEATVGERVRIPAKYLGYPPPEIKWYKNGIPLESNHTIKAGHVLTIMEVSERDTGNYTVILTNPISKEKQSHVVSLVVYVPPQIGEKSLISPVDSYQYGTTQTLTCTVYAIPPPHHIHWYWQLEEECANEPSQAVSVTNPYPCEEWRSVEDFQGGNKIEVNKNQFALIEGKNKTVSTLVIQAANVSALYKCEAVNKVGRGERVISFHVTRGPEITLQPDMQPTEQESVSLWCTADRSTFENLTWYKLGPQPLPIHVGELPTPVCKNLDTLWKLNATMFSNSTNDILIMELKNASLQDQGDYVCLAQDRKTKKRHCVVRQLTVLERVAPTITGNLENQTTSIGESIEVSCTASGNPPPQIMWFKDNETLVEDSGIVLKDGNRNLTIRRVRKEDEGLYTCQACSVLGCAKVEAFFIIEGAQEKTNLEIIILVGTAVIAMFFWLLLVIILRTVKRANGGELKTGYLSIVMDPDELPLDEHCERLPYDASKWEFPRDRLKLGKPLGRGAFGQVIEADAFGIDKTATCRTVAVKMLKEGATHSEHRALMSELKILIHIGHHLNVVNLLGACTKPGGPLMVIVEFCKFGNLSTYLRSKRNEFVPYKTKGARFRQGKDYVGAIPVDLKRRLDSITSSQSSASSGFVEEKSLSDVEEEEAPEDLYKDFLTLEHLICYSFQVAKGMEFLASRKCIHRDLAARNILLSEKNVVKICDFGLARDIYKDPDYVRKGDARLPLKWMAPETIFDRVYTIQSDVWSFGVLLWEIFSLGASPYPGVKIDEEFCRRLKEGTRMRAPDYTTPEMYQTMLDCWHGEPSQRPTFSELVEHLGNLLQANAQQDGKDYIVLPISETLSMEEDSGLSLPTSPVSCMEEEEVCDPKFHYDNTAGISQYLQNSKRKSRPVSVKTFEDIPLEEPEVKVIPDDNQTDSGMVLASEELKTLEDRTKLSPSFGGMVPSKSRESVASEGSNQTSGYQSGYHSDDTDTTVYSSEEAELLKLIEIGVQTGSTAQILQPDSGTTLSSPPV
T6 sequence (Q99759 whole entry): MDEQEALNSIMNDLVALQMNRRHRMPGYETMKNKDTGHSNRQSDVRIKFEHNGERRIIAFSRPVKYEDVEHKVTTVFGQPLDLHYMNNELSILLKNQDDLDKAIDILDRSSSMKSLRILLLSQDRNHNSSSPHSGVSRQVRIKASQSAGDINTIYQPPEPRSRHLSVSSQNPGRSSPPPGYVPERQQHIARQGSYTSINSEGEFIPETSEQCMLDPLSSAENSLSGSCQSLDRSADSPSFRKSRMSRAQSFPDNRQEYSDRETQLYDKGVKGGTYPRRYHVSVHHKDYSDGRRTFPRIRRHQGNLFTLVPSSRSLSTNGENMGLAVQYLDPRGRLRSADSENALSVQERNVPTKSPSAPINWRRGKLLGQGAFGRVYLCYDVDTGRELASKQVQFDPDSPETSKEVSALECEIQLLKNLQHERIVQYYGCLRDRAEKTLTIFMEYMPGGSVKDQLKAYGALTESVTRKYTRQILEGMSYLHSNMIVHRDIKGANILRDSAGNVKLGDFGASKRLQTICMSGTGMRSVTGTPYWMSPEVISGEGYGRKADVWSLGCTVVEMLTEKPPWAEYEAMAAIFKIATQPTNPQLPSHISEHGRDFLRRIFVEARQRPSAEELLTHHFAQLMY
T8 sequence (P42336 whole entry Q546K): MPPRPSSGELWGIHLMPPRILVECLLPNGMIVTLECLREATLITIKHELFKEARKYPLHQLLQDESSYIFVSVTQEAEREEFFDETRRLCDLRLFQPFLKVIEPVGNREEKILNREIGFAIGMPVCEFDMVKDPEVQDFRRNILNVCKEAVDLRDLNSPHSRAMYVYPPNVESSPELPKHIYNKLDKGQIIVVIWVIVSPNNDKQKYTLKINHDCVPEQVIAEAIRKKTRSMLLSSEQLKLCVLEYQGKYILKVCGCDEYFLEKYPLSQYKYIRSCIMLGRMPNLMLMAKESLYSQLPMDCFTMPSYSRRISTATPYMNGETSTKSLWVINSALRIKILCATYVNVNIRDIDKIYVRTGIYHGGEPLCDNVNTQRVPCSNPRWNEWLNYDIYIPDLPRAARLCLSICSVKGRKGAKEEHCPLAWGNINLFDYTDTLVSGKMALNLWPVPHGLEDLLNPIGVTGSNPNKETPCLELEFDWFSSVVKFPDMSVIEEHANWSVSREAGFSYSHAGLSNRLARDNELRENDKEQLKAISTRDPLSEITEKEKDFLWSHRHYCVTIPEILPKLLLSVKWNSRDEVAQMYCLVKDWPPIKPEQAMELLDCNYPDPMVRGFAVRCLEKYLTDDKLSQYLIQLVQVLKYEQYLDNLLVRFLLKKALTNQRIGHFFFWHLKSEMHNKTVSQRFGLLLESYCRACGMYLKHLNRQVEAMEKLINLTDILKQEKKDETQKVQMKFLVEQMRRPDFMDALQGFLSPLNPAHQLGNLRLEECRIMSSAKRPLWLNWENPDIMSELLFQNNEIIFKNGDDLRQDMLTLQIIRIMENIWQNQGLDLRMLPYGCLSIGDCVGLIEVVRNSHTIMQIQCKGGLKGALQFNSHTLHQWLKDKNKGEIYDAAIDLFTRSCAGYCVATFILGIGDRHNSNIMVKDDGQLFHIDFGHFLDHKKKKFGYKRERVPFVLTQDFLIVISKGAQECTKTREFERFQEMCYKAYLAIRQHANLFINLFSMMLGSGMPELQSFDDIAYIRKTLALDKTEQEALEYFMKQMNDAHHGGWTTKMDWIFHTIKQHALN
T13 sequence (P05622 32-1098): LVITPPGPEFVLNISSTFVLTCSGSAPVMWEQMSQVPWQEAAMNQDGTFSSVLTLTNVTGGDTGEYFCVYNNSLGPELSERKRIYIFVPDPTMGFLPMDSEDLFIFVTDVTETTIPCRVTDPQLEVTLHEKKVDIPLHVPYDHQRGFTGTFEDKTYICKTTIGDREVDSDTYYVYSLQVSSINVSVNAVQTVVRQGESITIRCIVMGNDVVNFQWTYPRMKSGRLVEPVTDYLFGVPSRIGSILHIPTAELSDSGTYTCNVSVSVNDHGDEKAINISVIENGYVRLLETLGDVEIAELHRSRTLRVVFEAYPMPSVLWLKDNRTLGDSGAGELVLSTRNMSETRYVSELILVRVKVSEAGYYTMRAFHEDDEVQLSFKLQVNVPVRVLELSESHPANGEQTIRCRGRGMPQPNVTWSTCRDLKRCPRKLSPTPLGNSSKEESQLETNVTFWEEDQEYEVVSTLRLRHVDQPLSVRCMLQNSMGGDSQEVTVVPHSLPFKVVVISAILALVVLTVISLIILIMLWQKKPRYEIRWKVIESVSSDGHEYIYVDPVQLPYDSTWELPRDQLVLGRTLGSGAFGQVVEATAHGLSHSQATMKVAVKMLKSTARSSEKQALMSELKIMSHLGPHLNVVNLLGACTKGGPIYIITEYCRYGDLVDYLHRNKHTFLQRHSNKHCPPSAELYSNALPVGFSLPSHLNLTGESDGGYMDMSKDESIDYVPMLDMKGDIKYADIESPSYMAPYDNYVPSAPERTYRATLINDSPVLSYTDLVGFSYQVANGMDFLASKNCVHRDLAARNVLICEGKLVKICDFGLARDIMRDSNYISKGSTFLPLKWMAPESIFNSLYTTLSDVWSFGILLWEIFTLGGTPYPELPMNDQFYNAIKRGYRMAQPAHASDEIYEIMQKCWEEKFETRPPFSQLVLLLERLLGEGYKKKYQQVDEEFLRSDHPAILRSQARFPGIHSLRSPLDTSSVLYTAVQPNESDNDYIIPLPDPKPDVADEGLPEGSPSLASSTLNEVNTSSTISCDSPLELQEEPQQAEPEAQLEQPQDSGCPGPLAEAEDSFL
T9 sequence (P07947 whole entry): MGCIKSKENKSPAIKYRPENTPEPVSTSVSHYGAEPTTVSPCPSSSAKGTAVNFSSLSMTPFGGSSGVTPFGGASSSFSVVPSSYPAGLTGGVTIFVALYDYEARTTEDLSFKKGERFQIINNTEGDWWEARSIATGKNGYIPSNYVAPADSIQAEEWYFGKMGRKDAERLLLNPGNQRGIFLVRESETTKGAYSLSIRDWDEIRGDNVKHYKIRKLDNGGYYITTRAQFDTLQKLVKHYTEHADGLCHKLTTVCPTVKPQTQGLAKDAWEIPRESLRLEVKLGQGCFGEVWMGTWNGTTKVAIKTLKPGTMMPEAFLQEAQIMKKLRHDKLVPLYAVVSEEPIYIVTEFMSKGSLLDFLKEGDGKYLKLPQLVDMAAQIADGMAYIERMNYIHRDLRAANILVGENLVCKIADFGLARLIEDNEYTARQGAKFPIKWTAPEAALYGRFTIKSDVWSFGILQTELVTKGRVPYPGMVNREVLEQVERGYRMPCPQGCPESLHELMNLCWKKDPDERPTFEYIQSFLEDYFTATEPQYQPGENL
T7 sequence (P53778 whole entry): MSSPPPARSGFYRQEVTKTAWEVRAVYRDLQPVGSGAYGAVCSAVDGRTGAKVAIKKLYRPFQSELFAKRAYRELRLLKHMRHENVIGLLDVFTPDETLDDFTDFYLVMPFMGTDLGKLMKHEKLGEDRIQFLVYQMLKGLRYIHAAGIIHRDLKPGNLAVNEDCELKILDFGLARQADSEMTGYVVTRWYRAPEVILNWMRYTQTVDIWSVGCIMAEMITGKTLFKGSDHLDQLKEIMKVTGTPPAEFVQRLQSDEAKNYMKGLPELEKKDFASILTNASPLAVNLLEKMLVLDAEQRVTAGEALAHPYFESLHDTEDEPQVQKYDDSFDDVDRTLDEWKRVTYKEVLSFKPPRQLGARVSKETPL

With `CCOP(=O)(CN1CCC(COc2cc3nccc(Oc4ccc(NC(=O)C5(C(=O)Nc6ccc(F)cc6)CC5)cc4F)c3cc2OC)CC1)OCC` [Example 10, N1-[4-[[7-[[1-(diethoxyphosphorylmethyl)-4-piperidinyl]methoxyl]-6-methoxyl-4-quinolyl]oxyl]-3-fluorophenyl]-N1′-(4-fluorophenyl)cyclopropane-1,1-dicarboxamide] the “% Ctrl@1000 nM” value [1] was 100 % Ctrl, the “% Ctrl@1000 nM” value [2] was 100 % Ctrl and the “% Ctrl@1000 nM” value [3] was 0.9 % Ctrl. For the same molecule, the “% Ctrl@1000 nM” value [4] was 100 % Ctrl, the “% Ctrl@1000 nM” value [5] was 100 % Ctrl and the “% Ctrl@1000 nM” value [6] was 100 % Ctrl. The “% Ctrl@1000 nM” value [7] was 100 % Ctrl, the “% Ctrl@1000 nM” value [8] was 100 % Ctrl and the “% Ctrl@1000 nM” value [9] was 20 % Ctrl. For the same molecule, the “% Ctrl@1000 nM” value [10] was 3.9 % Ctrl, the “% Ctrl@1000 nM” value [11] was 100 % Ctrl and the IC50 [12] was 17 nM. The IC50 [13] was 13 nM, the “% Ctrl@1000 nM” value [14] was 96 % Ctrl and the IC50 [15] was 0.43 nM.
